Measurements taken from patent US7009088B1, “Methods of modulating auxin production in plants” (priority 2000, dated 2006).

Experiments:
[1] = molecular target: T1, CYP83B1 (Arabidopsis thaliana, UniProt O65782); test: Optical difference (binding) spectroscopy of yeast microsomes containing CYP83B1
T1 sequence (O65782 1-499): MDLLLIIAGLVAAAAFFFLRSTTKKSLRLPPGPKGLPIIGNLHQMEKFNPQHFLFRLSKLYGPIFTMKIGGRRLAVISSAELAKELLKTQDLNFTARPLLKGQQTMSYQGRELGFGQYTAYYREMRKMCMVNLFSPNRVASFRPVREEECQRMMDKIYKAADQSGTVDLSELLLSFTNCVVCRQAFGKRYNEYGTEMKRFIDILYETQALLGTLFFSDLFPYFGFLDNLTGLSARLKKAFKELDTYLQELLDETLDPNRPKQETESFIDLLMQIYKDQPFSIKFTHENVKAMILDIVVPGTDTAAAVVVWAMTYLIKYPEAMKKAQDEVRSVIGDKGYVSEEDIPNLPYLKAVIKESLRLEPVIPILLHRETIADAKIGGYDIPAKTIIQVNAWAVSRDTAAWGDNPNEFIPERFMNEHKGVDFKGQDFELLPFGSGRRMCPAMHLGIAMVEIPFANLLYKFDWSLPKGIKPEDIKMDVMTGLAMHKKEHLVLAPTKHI
Description: (§1) FIG. 3. (A) Analysis of CYP83B1 by optical difference spectroscopy. […] After incubation for 10 min at 28° C. reaction mixtures were extracted with ethylacetate and analyzed by TLC. (s) substrate, (p) product.

[2] = molecular target: T1, CYP83B1; test: CYP83B1 catalysis of [5-3H]indole-3-acetaldoxime metabolism in yeast microsomes
Description: as §1
After incubation, reaction mixtures were stopped by adding SDS to 0.4% and were analyzed by thin layer chromatography (TLC). TLC plates were developed in chloroform/methanol/water (85:14:1) and radioactive bands visualized by autoradiography.
Reactions were stopped and extracted with ethylacetate. Aliquots of the substrate-containing ethylacetate phase and product-containing water phase were subjected to liquid scintillation counting.

[3] = tested on: Arabidopsis seedlings; test: Seedling growth on media supplemented with IAN (auxin phenotype); format: in vivo
Description: Four nitrilases, differentially expressed during development and in response to environmental cues, catalyze hydrolysis of IAN to IAA in Arabidopsis (Bartel and Fink (1994) Proc. Natl. Acad. Sci. USA 91:6649–6653). The nitl mutant is insensitive to the auxin effects of exogenously applied […] at the seedling stage (Normanly et al. (1997) Plant Cell 9:1781–1790). In accordance with the observed insensitivity of nit1 seedlings to IAN, NIT1 is most strongly expressed in the hypocotyl near the junction with the root in young seedlings as well as in the cotyledons. In contrast, NIT2 and NIT3 are expressed primarily in the cotyledons and NIT4 is expressed in the root tip (Bartel and Fink (1994) Proc. Natl. Acad. Sci. USA 91:6649–6653).

[4] = molecular target: T2, NIT2 (Arabidopsis thaliana, UniProt P32962); details: cited from earlier work
T2 sequence (P32962 1-339): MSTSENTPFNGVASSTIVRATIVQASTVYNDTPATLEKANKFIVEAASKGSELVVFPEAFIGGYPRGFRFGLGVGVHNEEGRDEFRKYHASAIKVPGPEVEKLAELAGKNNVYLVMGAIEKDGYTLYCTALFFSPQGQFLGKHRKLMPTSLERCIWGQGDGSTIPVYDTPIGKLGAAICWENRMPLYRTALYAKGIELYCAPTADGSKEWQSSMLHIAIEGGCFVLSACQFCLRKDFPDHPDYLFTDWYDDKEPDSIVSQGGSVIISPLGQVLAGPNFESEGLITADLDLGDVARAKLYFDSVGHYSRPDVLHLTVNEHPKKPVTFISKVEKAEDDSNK

[5] = molecular target: T3, NIT1 (Arabidopsis thaliana, UniProt P32961); details: cited from earlier work
T3 sequence (P32961 1-346): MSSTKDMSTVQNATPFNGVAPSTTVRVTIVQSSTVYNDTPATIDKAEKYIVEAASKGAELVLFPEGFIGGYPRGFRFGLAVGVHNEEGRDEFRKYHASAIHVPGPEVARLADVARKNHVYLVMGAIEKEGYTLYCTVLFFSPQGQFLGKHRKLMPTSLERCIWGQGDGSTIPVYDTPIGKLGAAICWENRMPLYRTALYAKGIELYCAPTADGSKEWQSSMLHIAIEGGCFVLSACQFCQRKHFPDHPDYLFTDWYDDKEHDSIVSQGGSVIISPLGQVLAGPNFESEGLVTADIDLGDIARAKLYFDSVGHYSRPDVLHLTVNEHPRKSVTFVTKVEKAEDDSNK

[6] = tested on: wild type seedlings; test: Indole glucosinolate levels in seedlings grown on MS agar, quantified as SCN; format: in vivo, Arabidopsis; details: wild type seedlings germinated on MS media with 100 μM compound, two week old, versus wild type
Description: FIG. 6. Indole glucosinolate levels are affected by CYP83B1 expression. Indole glucosinolates in individual two week old seedlings grown on MS agar were quantified calorimetrically as SCN. 1) Wild type, 2) rnt1-1, 3) molecularly complemented line 3.25.11, 4) overexpression line 1.4.7, and 5) wild type grown on 100 μM tryptamine. Data are represented as the mean±S.E, (n=10 seedlings). Except for the molecularly complemented line 3.25.11, mean indole glucosinolate values all differ from wild type seedling values at a 1% confidence value (t-test).
Tryptophan-derived indole-3-acetaldoxime is also an intermediate in the biosynthesis of indole glucosinolates.

Question: What does the source list for `ON=CCc1c[nH]c2ccccc12` [indole-3-acetaldoxime]?
Answer: Kd [1]: 0.2 µM; turnover ([2]; in the presence of cysteine, 2.2 nM CYP83B1, 1 min at 28° C.): 53 min⁻¹; Km ([2]; read-out: Michaelis-Menten constant Km, in the presence of cysteine, 2.2 nM CYP83B1, 1 min at 28° C.): 3 µM

Question: For `N#CCc1c[nH]c2ccccc12` [IAN, indole-3-acetonitrile], which “effect on germination / IAA phenotype” value ([3]; rnt1-1 seedlings on 50 μM) is on record?
Answer: The value was “almost completely inhibiting germination”.

Question: What about the seedling phenotype ([3]; wild type seedlings on media supplemented with 50 μM) of the same molecule?
Answer: Its seedling phenotype is “phenocopy rnt1-1 seedlings”.

Question: And the “Km for IAN hydrolysis” value [4]?
Answer: Its value is “in the mM range”.

Question: What about the “Km for IAN hydrolysis” value [5] of the same molecule?
Answer: Its value is “in the mM range”.

Question: Which Kd [1] does the source give for `NCCc1c[nH]c2ccccc12` [tryptamine] here?
Answer: Its Kd is 24 µM.

Question: And the “inhibition of indole-3-acetaldoxime oxidation” value ([2]; 17.5 mM tryptamine, 35 μM [5-3H]indole-3-acetaldoxime, 22 nM CYP83B1, 10 min at 28° C., TLC)?
Answer: Its value is “inhibitor”.

Question: And the indole glucosinolate levels [6]?
Answer: The indole glucosinolate levels was “reduced levels”.
